Results published in US7138361B2, “Herbicidal heterocycles” (E. I. du Pont de Nemours and Company, priority 2000, dated 2006).

What was measured:
Experiment in all cases: Test C preemergence
Format in all cases: in vivo
[1] = system: yellow nutsedge (Cyperus esculentus); details: for Plant response rating, Nutsedge: scale 0 to 100, 0 no effect, 100 complete control
Source text: (§1) Seeds of plant species selected from bermudagrass (Cynodon dactylon), Surinam grass (Brachiaria decumbens), cocklebur (Xanthium strumarium), corn (Zea mays), crabgrass (Digitaria sanguinalis), woolly cupgrass (Eriochloa villosa), giant foxtail (Setaria faberii), goosegrass (Eleusine indica), johnsongrass (Sorghum halepense), kochia (Kochia scoparia), lambsquarters (Chenopodium album), morningglory (Ipomoea hederacea), yellow nutsedge (Cyperus esculentus), pigweed (Amaranthus retroflexus), common ragweed (Ambrosia elatior), soybean (Glycine max) and velvetleaf (Abutilon theophrasti) were planted and treated preemergence with test chemicals formulated in a non-phytotoxic solvent mixture which included a surfactant.
(§2) At the same time, plants selected from these crop and weed species and also winter barley (Hordeum vulgare), blackgrass (Alopecurus myosuroides), canary grass (Phalaris minor), chickweed (Stellaria media), downy brome (Bromus tectorum), green foxtail (Setaria viridis), Italian ryegrass (Lolium multiflorum), wheat (Triticum aestivum), wild oat (Avena fatua) and windgrass (Apera spica-venti) were treated with postemergence applications of some of the test chemicals formulated in the same manner. Plants ranged in height from 2 to 18 cm (1- to 4-leaf stage) for postemergence treatments. Plant species in the flooded paddy test consisted of rice (Oryza saliva), smallflower flatsedge (Cyperus difformis), duck salad (Heteranthera limosa) and barnyardgrass (Echinochloa crus-galli) grown to the 2-leaf stage for testing. Treated plants and controls were maintained in a greenhouse for 12 to 14 days, after which time all species were compared to controls and visually evaluated. Plant response ratings, summarized in Table C, are based on a scale of 0 to 100 where 0 is no effect and 100 is complete control. A dash (-) response means no test result.

[2] = system: Nightshade; details: scale 0 to 100, 0 no effect, 100 complete control
Source text: as §1, §2

[3] = system: kochia (Kochia scoparia); details: for Plant response rating, Kochia: scale 0 to 100, 0 no effect, 100 complete control; for Plant response rating (0 to 100), Kochia: visual evaluation after 12 to 14 days
Source text: as §1, §2

[4] = system: lambsquarters (Chenopodium album); details: for Plant response rating, Lambsquarters: scale 0 to 100, 0 no effect, 100 complete control
Source text: as §1, §2

[5] = system: johnsongrass (Sorghum halepense); details: for Plant response rating, Johnsongrass: scale 0 to 100, 0 no effect, 100 complete control; for Plant response rating (0 to 100), Johnsongrass: visual evaluation after 12 to 14 days
Source text: as §1, §2

[6] = system: crabgrass (Digitaria sanguinalis); details: for Plant response rating, Crabgrass: scale 0 to 100, 0 no effect, 100 complete control; for Plant response rating (0 to 100), Crabgrass: visual evaluation after 12 to 14 days
Source text: as §1, §2

[7] = system: Surinam grass (Brachiaria decumbens); details: for Plant response rating, Surinam grass: scale 0 to 100, 0 no effect, 100 complete control; for Plant response rating (0 to 100), Surinam grass: visual evaluation after 12 to 14 days
Source text: as §1, §2

[8] = system: goosegrass (Eleusine indica); details: for Plant response rating, Goosegrass: scale 0 to 100, 0 no effect, 100 complete control; for Plant response rating (0 to 100), Goosegrass: visual evaluation after 12 to 14 days
Source text: as §1, §2

[9] = system: morningglory (Ipomoea hederacea); details: for Plant response rating, Morningglory: scale 0 to 100, 0 no effect, 100 complete control
Source text: as §1, §2

[10] = system: soybean (Glycine max); details: preemergence; for Plant response rating, Soybean: scale 0 to 100, 0 no effect, 100 complete control
Source text: as §1, §2

[11] = system: pigweed (Amaranthus retroflexus); details: preemergence; for Plant response rating, Pigweed: scale 0 to 100, 0 no effect, 100 complete control
Source text: as §1, §2

[12] = system: common ragweed (Ambrosia elatior); details: preemergence; for Plant response rating, Ragweed, Common: scale 0 to 100, 0 no effect, 100 complete control
Source text: as §1, §2

[13] = system: cocklebur (Xanthium strumarium); details: for Plant response rating, Cocklebur: scale 0 to 100, 0 no effect, 100 complete control; for Plant response rating (0 to 100), Cocklebur: visual evaluation after 12 to 14 days
Source text: as §1, §2

[14] = system: bermudagrass (Cynodon dactylon); details: for Plant response rating, Bermudagrass: scale 0 to 100, 0 no effect, 100 complete control; for Plant response rating (0 to 100 where 0 is no effect and 100 is complete control), Bermudagrass: visual evaluation after 12 to 14 days
Source text: as §1, §2

[15] = system: velvetleaf (Abutilon theophrasti); details: preemergence; for Plant response rating, Velvetleaf: scale 0 to 100, 0 no effect, 100 complete control
Source text: as §1, §2

[16] = system: giant foxtail (Setaria faberii); details: for Plant response rating, Foxtail, Giant: scale 0 to 100, 0 no effect, 100 complete control; for Plant response rating (0 to 100), Foxtail, Giant: visual evaluation after 12 to 14 days
Source text: as §1, §2

[17] = system: woolly cupgrass (Eriochloa villosa); details: for Plant response rating, Cupgrass, Woolly: scale 0 to 100, 0 no effect, 100 complete control; for Plant response rating (0 to 100), Cupgrass, Woolly: visual evaluation after 12 to 14 days
Source text: as §1, §2

[18] = system: corn (Zea mays); details: for Plant response rating, Corn: scale 0 to 100, 0 no effect, 100 complete control; for Plant response rating (0 to 100), Corn: visual evaluation after 12 to 14 days
Source text: as §1, §2

[19] = system: Sunflower; details: scale 0 to 100, 0 no effect, 100 complete control
[20] = preemergence, Rate 500 g/ha, visual evaluation after 12 to 14 days
[21] = Rate 500 g/ha, visual evaluation after 12 to 14 days

CCOC(=O)c1cccc(N2CCC(n3ccc(C(C)(C)C)n3)C2=O)c1 (stereo not drawn) [Compound 72]
40: Plant response rating (0 to 100), Johnsongrass ([5]; preemergence, Rate 500 g/ha) | Plant response rating (0 to 100), Velvetleaf [15, 21]
0: Plant response rating, Nutsedge ([1]; Rate 62 g/ha) | Plant response rating, Nutsedge ([1]; preemergence, Rate 125 g/ha) | Plant response rating, Lambsquarters ([4]; Rate 62 g/ha) | Plant response rating, Johnsongrass ([5]; Rate 62 g/ha) | Plant response rating (0 to 100), Johnsongrass ([5]; preemergence, Rate 250 g/ha) | Plant response rating, Johnsongrass ([5]; preemergence, Rate 125 g/ha) | Plant response rating, Surinam grass ([7]; Rate 62 g/ha) | Plant response rating, Morningglory ([9]; Rate 62 g/ha) | Plant response rating, Soybean ([10]; Rate 125 g/ha) | Plant response rating, Soybean ([10]; Rate 250 g/ha) | Plant response rating, Pigweed ([11]; Rate 250 g/ha) | Plant response rating, Ragweed, Common ([12]; Rate 125 g/ha) | Plant response rating, Cocklebur ([13]; Rate 62 g/ha) | Plant response rating, Bermudagrass ([14]; Rate 62 g/ha) | Plant response rating, Velvetleaf ([15]; Rate 125 g/ha) | Plant response rating, Cupgrass, Woolly ([17]; Rate 62 g/ha) | Plant response rating, Corn ([18]; Rate 62 g/ha) | Plant response rating (0 to 100), Corn ([18]; preemergence, Rate 250 g/ha) | Plant response rating (0 to 100), Corn ([18]; preemergence, Rate 500 g/ha) | Plant response rating, Corn ([18]; preemergence, Rate 125 g/ha)
50: Plant response rating (0 to 100), Surinam grass ([7]; preemergence, Rate 500 g/ha)
80: Plant response rating (0 to 100), Surinam grass ([7]; preemergence, Rate 250 g/ha) | Plant response rating (0 to 100), Goosegrass ([8]; preemergence, Rate 250 g/ha) | Plant response rating (0 to 100), Cupgrass, Woolly ([17]; preemergence, Rate 250 g/ha)
30: Plant response rating, Nightshade ([2]; Rate 62 g/ha) | Plant response rating, Nightshade ([2]; Rate 250 g/ha) | Plant response rating, Kochia ([3]; Rate 62 g/ha) | Plant response rating, Surinam grass ([7]; preemergence, Rate 125 g/ha) | Plant response rating, Morningglory ([9]; preemergence, Rate 125 g/ha) | Plant response rating, Cocklebur ([13]; preemergence, Rate 125 g/ha) | Plant response rating, Foxtail, Giant ([16]; Rate 62 g/ha)
100: Plant response rating (0 to 100), Kochia ([3]; preemergence, Rate 500 g/ha) | Plant response rating, Kochia ([3]; preemergence, Rate 125 g/ha) | Plant response rating (0 to 100), Lambsquarters [4, 20] | Plant response rating, Lambsquarters ([4]; preemergence, Rate 125 g/ha) | Plant response rating, Lambsquarters ([4]; preemergence, Rate 250 g/ha) | Plant response rating (0 to 100), Crabgrass ([6]; preemergence, Rate 250 g/ha) | Plant response rating (0 to 100), Crabgrass ([6]; preemergence, Rate 500 g/ha) | Plant response rating, Crabgrass ([6]; preemergence, Rate 125 g/ha) | Plant response rating (0 to 100), Morningglory [9, 20] | Plant response rating (0 to 100), Pigweed [11, 21] | Plant response rating, Pigweed ([11]; Rate 125 g/ha) | Plant response rating (0 to 100 where 0 is no effect and 100 is complete control), Bermudagrass ([14]; preemergence, Rate 500 g/ha)
70: Plant response rating, Goosegrass ([8]; preemergence, Rate 125 g/ha) | Plant response rating, Ragweed, Common ([12]; Rate 250 g/ha) | Plant response rating (0 to 100), Cocklebur ([13]; preemergence, Rate 500 g/ha) | Plant response rating (0 to 100), Foxtail, Giant ([16]; preemergence, Rate 250 g/ha) | Plant response rating, Foxtail, Giant ([16]; preemergence, Rate 125 g/ha) | Plant response rating (0 to 100), Cupgrass, Woolly ([17]; preemergence, Rate 500 g/ha)
20: Plant response rating (0 to 100), Nutsedge [1, 20] | Plant response rating, Nutsedge ([1]; preemergence, Rate 250 g/ha) | Plant response rating, Goosegrass ([8]; Rate 62 g/ha) | Plant response rating (0 to 100), Soybean [10, 21] | Plant response rating, Sunflower ([19]; Rate 125 g/ha) | Plant response rating, Sunflower ([19]; Rate 250 g/ha)
10: Plant response rating, Nightshade ([2]; Rate 125 g/ha) | Plant response rating, Morningglory ([9]; preemergence, Rate 250 g/ha) | Plant response rating (0 to 100), Cocklebur ([13]; preemergence, Rate 250 g/ha) | Plant response rating, Velvetleaf ([15]; Rate 250 g/ha) | Plant response rating, Cupgrass, Woolly ([17]; preemergence, Rate 125 g/ha)
90: Plant response rating (0 to 100), Kochia ([3]; preemergence, Rate 250 g/ha) | Plant response rating, Crabgrass ([6]; Rate 62 g/ha) | Plant response rating (0 to 100), Goosegrass ([8]; preemergence, Rate 500 g/ha) | Plant response rating (0 to 100), Ragweed, Common [12, 21] | Plant response rating (0 to 100 where 0 is no effect and 100 is complete control), Bermudagrass ([14]; preemergence, Rate 250 g/ha) | Plant response rating, Bermudagrass ([14]; preemergence, Rate 125 g/ha) | Plant response rating (0 to 100), Foxtail, Giant ([16]; preemergence, Rate 500 g/ha)
